Results on two compounds are retold here after patent publication US20150080380A1, “Therapeutic Uses” (GLAXOSMITHKLINE INTELLECTUAL PROPERTY DEVELOPMENT LIMITED, priority 2012, published 2015).

Like-named read-outs stand apart in the source and are kept apart here.

One experiment deals with OPC differentiation. The experiment in a line: Oligodendrocyte precursor cell (OPC) differentiation assay (MBP immunocytochemistry). The following applies: for EC50: Rattus norvegicus, Oligodendrocyte precursor cell. It counts as cell-based, rat. Here is the method: The effects of small-molecule inverse agonists and neutral antagonists of histamine receptor 3 (H3R) on OPC differentiation were determined using the following assay.
The enriched OPC were obtained from dissecting 2-d-old rat pups forebrain. The pups were anesthetized and decapitated. Then the skull was cut with microdissecting scissors and the cortex was taken out with Dumont forceps. The meninges were removed with fine tips. After repeated trituration of the cortex through cell strainer, cells were re-suspended with the culture media consisted of DMEM supplemented with 20% Fetal bovine serum (Invitrogen, Carlsbad, Calif.), glutamine (4 mM, (Invitrogen), and plated onto poly-D-lysine (PDL, […] for 1 h, Sigma, St. Louis, Mo.)-coated T75 flasks. The resulting cultures were fed with fresh culture media twice per week and almost all the neurons will die due to the high concentration of serum in one week. Then the mixed glial cells were subjected to a series shake-off procedure to obtain pure OPCs two weeks later. Specifically, the mixed glial cells were shaken initially for 1 hour at 100 rpm to remove microglia and shaken for 20-22 hours at 37° C. at 200 rpm to enrich OPCs. OPCs were collected by centrifugation at 1200 rpm for 5 min, re-suspended in basal chemically defined medium (BDM). BDM consisted of DMEM supplemented with N2 medium (100×, Invitrogen), glutamine (4 mM, Invitrogen), BSA (0.1 mg/ml, Sigma), hydrocortisone (20 nM, Sigma), selenium (30 nM, Sigma) and biotin (10 nM, Sigma). OPCs were plated on poly-ornithine (PO, 50 μg/ml for 1 hr, Sigma)-coated culture dishes and maintained in BDM supplemented with bFGF (10 ng/ml, Invitrogen) and PDGF (10 ng/ml, PeproTech, Rocky Hill, N.J.) before experimental manipulation. OPCs were 95% pure judged by A2B5+ staining.
To initiate OPC differentiation, OPCs were firstly treated with 0.05% Trypsin/EDTA, and seeded into PO-coated 384-mini well plate at a density of 2,000 to 5,000 cells/well. Each test compound was dissolved in DMSO at the concentration of 10 mM for the assay. Compounds at different concentrations (full dose curve, 0.3 nM-10 uM) were added into the OPC culture in duplicates with Echo machine (Thermo, Waltham, Mass.). OPCs were cultured in BDM supplemented with N-acetyl-L-cystenine (30 μM, Sigma) to differentiate into mature oligodendrocytes for 4 days. BDM comprise DMEM (Invitrogen), N2 (100×, Invitrogen), L-Glu (50×, Invitrogen), Sodium Pyruvate (100×, Invitrogen), BSA (0.1%, Sigma), Biotin (10 nM, Sigma), hydrocortisone (10 nM, Sigma). The resulting cultures were fixed with 4% polyformaldehyde (Sigma) and samples were blocked with the blocking buffer (Donkey Serum 3%, Sigma; Triton X-100 0.04%, Sigma). Then fixed cells were incubated in primary antibodies (anti-myelin basic protein, MBP antibody, 600× dilution in blocking buffer) overnight at 4° C., washed thoroughly with PBS and then incubated with Alexa 488-labeled secondary antibody (Molecular Probes, Invitrogen) for 2 h at R.T; then washed thoroughly with PBS and stained with Dapi (1 ug/ml, Sigma),
The full-plate immunocytochemistry staining was read by an automatic image-based analysis system-Cellomics (Thermo) and the raw data for each well was acquired as percentage of MBP+ population as follows: Pictures of eight fields per well were captured and analyzed quantitatively; the well data is the average of 8 fields. The intensity of anti-MBP staining in the cytosol was used as the criteria of positive objects. The threshold of positive objects was set based on the average intensity of the positive control well, for which triiodothyronine (15 nM) was used. Then the data was analyzed and presented as fold change of the number of the vehicle control well. Graphs were generated by softwares: Microsoft Excel and IDBS XL fits. The curve fitting was performed with software XL fits to derive EC50 of the positive compounds.
All data except FIG. 1 are given as mean±standard error of the mean (SEM). […]

Experiment [1] has as its system MAG and MBP expression in OPCs. Kind of experiment: Western blot of mature oligodendrocyte markers in differentiating OPCs. In kind it is cell-based, rat. The conditions noted are these: differentiating oligodendrocytes after treatment. As to the method:
The antibodies used for immunoblot and immunocytochemistry experiments were rabbit anti-myelin basic protein (MBP, Millipore, Billerica, Mass.), mouse anti-myelin-associated glycoprotein (MAG, abcam, Cambridge, Mass.).
After treatments, OPCs were washed twice with ice-cold PBS and total cell lysates were harvested in RIPA lysis buffer (50 mM Tris-HCl, pH 7.5, 1 mM EDTA, 1 mM EGTA, 1 mM sodium orthovanadate, 50 mM sodium fluoride, 0.1% 2-mercaptoethanol, 1% triton X-100 and proteases inhibitor cocktail). The lysates were briefly sonicated and stored at −80° C. before Western analysis. The BCA Protein Assay Reagent (PIERCE, Thermo) was performed to determine protein concentration. 15 μg of total protein per sample was aliquoted, boiled for 5 min after being mixed with 2×SDS buffer (125 mM Tris-HCl, 4% SDS, 20% glycerol, 100 mM DTT) and separated by SDS-PAGE on Bis-Tris mini-gels (Invitrogen). Separated proteins were then transferred to nitrocellulose membranes and blocked in 5% milk/TBS-0.1% Tween for 1 h at room temperature. Membranes were then incubated in the presence of primary antibodies diluted in 5% milk/TBS-0.1% Tween overnight at 4° C. The following day, membranes were washed 3 times for 5 min with TBS-0.1% Tween and incubated for 1 h at room temperature in 5% milk/TBS-0.1%. […]
Background: In western blotting, separated proteins are transferred to a membrane and probed.

A word on the EC50: it is the concentration that produces a half-maximal response. Take `O=C1CCCN1c1ccc(Oc2ccc3c(c2)CCN(C2CCC2)CC3)nc1` [Example compound 1, 1-{6-[(3-cyclobutyl-2,3,4,5-tetrahydro-1H-3-benzazepin-7-yl)oxy]-3-pyridinyl}-2-pyrrolidinone]: the half-maximal effective concentration (EC50) in the experiment on OPC differentiation (five experiments (n=5), FIG. 3b, read-out: EC50, promotion of OPC differentiation) is 159 ± 57 nM; with OPC differentiation (two experiments (n=2), FIG. 3a, read-out: EC50, promotion of OPC differentiation), 118 ± 49 nM. For the same compound, the MBP-positive cells result in the experiment with OPC differentiation (at 3 uM, n=5, FIG. 3b) was “up to 1.8±0.1 folds of control”. The “expression levels of MAG and MBP (western blot)” value in experiment [1] is “increased expression levels”.
Take `c1cc2c(cc1-c1noc(CC3CCN(C4CCC4)CC3)n1)OCO2` [Example compound 2, 3-(benzo[d][1,3]dioxol-5-yl)-5-((1-cyclobutylpiperidin-4-yl)methyl)-1,2,4-oxadiazole]: the EC50 in the experiment on OPC differentiation (96 h, 0.3 nM-10 uM, 4 days, FIG. 1, read-out: EC50, promotion of OPC differentiation (MBP+ population)) was 25 nM. Moreover, in experiment [1], the “expression levels of MAG and MBP (western blot)” value is listed as “significant increase”.
